The record followed here is patent publication US7348347B2, “Substituted 4,5,6,7-tetrahydrobenzthiazol-2-ylamine compounds” (Gruenenthal GmbH, priority 2004, dated 2008).

SMILES strings stand for the structures.

By inhibition is commonly meant the relative decrease from the control value, in per cent.

One assay concerns the target T1, 5-HT uptake (Rattus norvegicus, UniProt P31652).
T1 construct: from tissue; host or cells: rat brain synaptosomes (P2 fraction) from marrow (medulla) and pons
Description: Inhibition of 5-HT uptake in rat brain synaptosomes. In kind it is biochemical. The conditions noted are these: [3H]-5-HT. The procedure:
The relevant literature reference is enclosed herein by reference and is to be regarded as part of the disclosure.
The homogenate is centrifuged at 4° C. for 10 minutes at 1000 g. Following subsequent centrifugation at 17,000 g for 55 minutes, the synaptosomes (P2 fraction) are obtained, which are then resuspended in 0.32 M […] (0.5 mL/100 mg of the original weight).
The respective uptake was measured in a 96 well microtiter plate. The volume was 250 μL and the incubation was carried out at room temperature (ca 20-25° C.) under a blanket of oxygen.
The 96 samples through were then filtered through a Unifilter GF/B® microtiter plate (Packard) and washed with 200 mL of incubated buffer with the aid of a “Brabdel Cell-Harvester MPXRI 96T”. The Unifilter GF/B plate was dried at 55° C. over a period of 1 h. The plate was then sealed with a back seal® (Packard) and there were then added 35 μL of scintillant fluid per well (Ultima Gold, Packard).
A detailed description of the method is disclosed in the literature, for example, in M. Ch.

In a further assay the target is T2, NA transporter (Rattus norvegicus, UniProt Q63380).
T2 construct: from tissue; host or cells: rat brain synaptosomes (P2 fraction) from hypothalamus
As to the kind of experiment: Inhibition of noradrenaline uptake in rat brain synaptosomes. In kind it is biochemical. The conditions noted are these: 10 μM, rat synaptosomes (hypothalamus), [3H]-NA; for inhibition at 10 µM: read-out: % Inhibition of NA uptake [10 μM]. The procedure: II. […] For in vitro studies, synaptosomes of rat brain areas are freshly isolated, as described in the article “The isolation of nerve endings from brain” by E. G. Gray and […]. Anatomy 96, pages 79-88, 1962. The relevant literature reference is enclosed herein by reference and is to be regarded as part of the disclosure. […] The homogenate is centrifuged at 4° C. for 10 minutes at 1000 g. […] The respective uptake was measured in a 96 well microtiter plate. The volume was 250 μL and the incubation was carried out at room temperature (ca 20-25° C.) under a blanket of oxygen. […] The 96 samples through were then filtered through a Unifilter GF/B® microtiter plate (Packard) and washed with 200 mL of incubated buffer with the aid of a “Brabdel Cell-Harvester MPXRI 96T”. The Unifilter GF/B plate was dried at 55° C. over a period of 1 h. The plate was then sealed with a back seal® (Packard) and there were then added 35 μL of scintillant fluid per well (Ultima Gold, Packard). Following sealing with a top seal® (Packard) and following adjustment of the equilibrium (approximately over a period of 5 h), the radioactivity is determined in a 1450 Microbeta® (Wallac). […] The amount of protein used in the above determination corresponded to the values known from the literature, such as is described in “Protein measurement with the folin phenol reagent”, Lowry et al., J. Biol. Chem., 193, 265-275, 1951. A detailed description of the method is disclosed in the literature, for example, in […], and B. […] The relevant literature references are incorporated herein by reference and are to be regarded as part of the disclosure.

Setting [1] is: rat synaptosomes (medulla and pons).

T1 sequence (P31652 whole entry): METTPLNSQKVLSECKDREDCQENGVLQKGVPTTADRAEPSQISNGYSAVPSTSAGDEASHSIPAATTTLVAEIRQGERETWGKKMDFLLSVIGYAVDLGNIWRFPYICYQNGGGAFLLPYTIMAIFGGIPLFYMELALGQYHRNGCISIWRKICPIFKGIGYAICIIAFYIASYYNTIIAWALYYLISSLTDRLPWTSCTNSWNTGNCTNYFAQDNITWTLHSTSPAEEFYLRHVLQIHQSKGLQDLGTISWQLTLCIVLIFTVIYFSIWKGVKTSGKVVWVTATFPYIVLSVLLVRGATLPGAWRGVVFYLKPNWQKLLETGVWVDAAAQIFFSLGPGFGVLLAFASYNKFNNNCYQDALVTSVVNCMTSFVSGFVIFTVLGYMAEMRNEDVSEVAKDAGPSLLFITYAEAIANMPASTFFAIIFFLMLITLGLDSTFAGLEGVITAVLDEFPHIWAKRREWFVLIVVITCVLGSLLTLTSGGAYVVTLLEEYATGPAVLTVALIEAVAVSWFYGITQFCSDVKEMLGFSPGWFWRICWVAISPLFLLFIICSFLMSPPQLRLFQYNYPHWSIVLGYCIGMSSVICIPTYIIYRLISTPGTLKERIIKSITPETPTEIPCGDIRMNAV
T2 sequence (Q63380 1-617): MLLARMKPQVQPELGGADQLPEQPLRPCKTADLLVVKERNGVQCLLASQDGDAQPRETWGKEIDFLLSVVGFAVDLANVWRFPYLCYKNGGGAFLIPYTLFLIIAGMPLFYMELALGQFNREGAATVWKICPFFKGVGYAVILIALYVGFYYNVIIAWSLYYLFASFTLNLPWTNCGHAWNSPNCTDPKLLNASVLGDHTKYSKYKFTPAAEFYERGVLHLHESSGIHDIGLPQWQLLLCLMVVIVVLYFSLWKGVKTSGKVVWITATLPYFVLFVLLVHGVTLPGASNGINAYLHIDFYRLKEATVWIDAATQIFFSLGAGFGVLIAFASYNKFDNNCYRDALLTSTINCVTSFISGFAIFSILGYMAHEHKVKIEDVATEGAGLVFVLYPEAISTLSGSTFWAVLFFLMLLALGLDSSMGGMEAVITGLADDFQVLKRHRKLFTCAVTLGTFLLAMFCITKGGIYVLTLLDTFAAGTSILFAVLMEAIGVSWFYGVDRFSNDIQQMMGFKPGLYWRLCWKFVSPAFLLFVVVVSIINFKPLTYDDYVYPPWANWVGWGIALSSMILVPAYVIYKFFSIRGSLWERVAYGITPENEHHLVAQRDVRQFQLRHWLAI

For the compound `CC(=O)c1ccc(N2CCN(C(=O)C3CCCc4sc(NC(=O)c5ccco5)nc43)CC2)cc1` (stereo not shown) [Example 8, Furan-2-carboxylic acid{4-[4-(4-acetylphenyl)piperazin-1-carbonyl]-4,5,6,7-tetrahydrobenzthiazol-2-yl}amide], the “% Inhibition of 5-HT uptake [10 μM]” value on 5-HT uptake (setting [1]) came out at 89%. The “% Inhibition of NA uptake [10 μM]” value at NA transporter is reported as 78%.

As for `COc1cc(OC)c(CN2CCC(NC(=O)C3CCCc4sc(NC(=O)c5ccco5)nc43)C2)c(OC)c1` (stereo not shown) [Example 9, 2-[(Furan-2-carbonyl)amino]-4,5,6,7-tetrahydrobenzthiazol-4-carboxylic acid [1-(-2,4,6-trimethoxybenzyl)pyrrolidin-3-yl]amide], the inhibition at 10 µM at 5-HT uptake (setting [1]) worked out at 53%; on NA transporter it was 98%.

Take `CC(C(=O)Nc1nc2c(s1)CCCC2C(=O)N1CCN(C(C)C)CC1)c1ccccc1` (stereo not shown) [Example 10, N-[4-(4-Isopropylpiperazin-1-carbonyl)-4,5,6,7-tetrahydrobenzthiazol-2-yl]-2-phenylpropionamide]: the inhibition at 10 µM against 5-HT uptake (setting [1]) was found to be 42%; on NA transporter it was 64%.

Take `COc1ccc(C(=O)Nc2nc3c(s2)CCCC3C(=O)NCC2CCN(Cc3c(F)cccc3Cl)C2)cc1` (stereo not shown) [Example 12, 2-(4-Methoxybenzoylamino)-4,5,6,7-tetrahydrobenzthiazol-4-carboxylic acid [1-(2-chloro-6-fluorobenzyl)pyrrolidin-3-yl]methylamide]: the inhibition at 10 µM came out at 55% on 5-HT uptake (setting [1]) and 48% at NA transporter.

As to `O=C(Cc1cccs1)Nc1nc2c(s1)CCCC2C(=O)NCCCN1CCOCC1` (stereo not shown) [Example 14], at 5-HT uptake (setting [1]), the “% Inhibition of 5-HT uptake [10 μM]” value is 50%. Moreover, at NA transporter, the “% Inhibition of NA uptake [10 μM]” value is reported as 43%.

For `O=C(Nc1nc2c(s1)CCCC2C(=O)N1CCN(Cc2cc3ccccc3o2)CC1)c1ccoc1` (stereo not shown) [Example 17, Furan-3-carboxylic acid[4-(4-benzofuran-2-ylmethylpiperazin-1-carbonyl)-4,5,6,7-tetrahydrobenzthiazol-2-yl]amide], the “% Inhibition of 5-HT uptake [10 μM]” value on 5-HT uptake (setting [1]) was determined as 72%. For the same compound, the “% Inhibition of NA uptake [10 μM]” value at NA transporter is listed as 81%.

Regarding `CCCCCC(=O)Nc1nc2c(s1)CCCC2C(=O)NCCCN1CCCCC1C` (stereo not shown) [Example 18, 2-Hexanylamino-4,5,6,7-tetrahydrobenzthiazol-4-carboxylic acid[3-(2-methylpiperidin-1-yl)propyl]amide], the “% Inhibition of 5-HT uptake [10 μM]” value at 5-HT uptake (setting [1]) was 57%. Besides, the “% Inhibition of NA uptake [10 μM]” value at NA transporter is reported as 43%.

Turning to `CCOc1ccccc1C(=O)Nc1nc2c(s1)CCCC2C(=O)N1CCN(CCc2ccccc2)CC1` (stereo not shown) [Example 20, 2-Ethoxy-N-[4-(4-phenethylpiperazin-1-carbonyl)-4,5,6,7-tetrahydrobenzthiazol-2-yl]benzamide], the inhibition at 10 µM is 64% against 5-HT uptake (setting [1]) and 77% on NA transporter.

Take `O=C(COc1ccc(F)cc1)Nc1nc2c(s1)CCCC2C(=O)N1CCN(c2ccccc2)CC1` (stereo not shown) [Example 21, 2-(4-Fluorophenoxy)-N-[4-(4-phenylpiperazin-1-carbonyl)-4,5,6,7-tetrahydrobenzthiazol-2-yl]acetamide]: the inhibition at 10 µM was determined as 47% on 5-HT uptake (setting [1]) and 55% at NA transporter.

With `CC(C(=O)Nc1nc2c(s1)CCCC2C(=O)NCCC1CCCN1C)c1ccccc1` (stereo not shown) [Example 22, 2-(2-Phenylpropionylamino)-4,5,6,7-tetrahydrobenzthiazol-4-carboxylic acid [2-(1-methylpyrrolidin-2-yl)ethyl]amide], the inhibition at 10 µM at 5-HT uptake (setting [1]) worked out at 44%; on NA transporter, 60%.

On to `CCCC(=O)Nc1nc2c(s1)CCCC2C(=O)N1CCN(Cc2cc3ccccc3o2)CC1` (stereo not shown) [Example 27, N-[4-(4-Benzofuran-2-ylmethylpiperazin-1-carbonyl)-4,5,6,7-tetrahydrobenzthiazol-2-yl]butyramide], for which the results for the inhibition at 10 µM against 5-HT uptake (setting [1]) and at NA transporter were 61% and 47%, respectively.

Regarding `COc1cccc(N2CCN(C(=O)C3CCCc4sc(NC(=O)c5ccccc5)nc43)CC2)c1` (stereo not shown) [Example 28, N-{4-[4-(3-Methoxyphenyl)piperazin-1-carbonyl]-4,5,6,7-tetrahydrobenzthiazol-2-yl}benzamide], the inhibition at 10 µM against 5-HT uptake (setting [1]) was 48%; on NA transporter, 60%.

Consider `CCCC(=O)Nc1nc2c(s1)CCCC2C(=O)NCC1CCN(Cc2ccc(-c3ccccc3)cc2)C1` (stereo not shown) [Example 29, 2-Butyrylamino-4,5,6,7-tetrahydrobenzthiazol-4-carboxylic acid (1-biphenyl-4-ylmethylpyrrolidin-3-yl)methylamide], for which the values for the inhibition at 10 µM against 5-HT uptake (setting [1]) and on NA transporter were 55% and 73%, respectively.

With `COc1cc(Br)c(CN2CCC(NC(=O)C3CCCc4sc(NC(=O)C(C)c5ccccc5)nc43)C2)cc1OC` (stereo not shown) [Example 33], the “% Inhibition of 5-HT uptake [10 μM]” value at 5-HT uptake (setting [1]) came to 63%. The “% Inhibition of NA uptake [10 μM]” value on NA transporter is 79%.

For `CCCCCC(=O)Nc1nc2c(s1)CCCC2C(=O)N1CCN(Cc2c(OC)cc(OC)cc2OC)CC1` (stereo not shown) [Example 34, Hexanoic acid{4-[4-(2,4,6-trimethoxybenzyl)piperazin-1-carbonyl]-4,5,6,7-tetrahydrobenzthiazol-2-yl}amide], at 5-HT uptake (setting [1]), the “% Inhibition of 5-HT uptake [10 μM]” value worked out at 63%. Also, the “% Inhibition of NA uptake [10 μM]” value on NA transporter is listed as 50%.

As to `O=C(Cc1cccs1)Nc1nc2c(s1)CCCC2C(=O)NCCN1CCCCCC1` (stereo not shown) [Example 39, 2-(2-Thiophen-2-ylacetylamino)-4,5,6,7-tetrahydrobenzthiazol-4-carboxylic acid(2-azepan-1-ylethyl)amide], the “% Inhibition of 5-HT uptake [10 μM]” value on 5-HT uptake (setting [1]) stood at 49%. Moreover, the “% Inhibition of NA uptake [10 μM]” value at NA transporter was found to be 50%.

For the compound `CCOc1ccccc1CN1CCC(CNC(=O)C2CCCc3sc(NC(=O)Cc4cccs4)nc32)C1` (stereo not shown) [Example 40], at 5-HT uptake (rat synaptosomes (and pons)), the “% Inhibition of 5-HT uptake [10 μM]” value came to 48%. Also, the “% Inhibition of NA uptake [10 μM]” value on NA transporter came out at 47%.

As to `O=C(CCc1ccccc1)Nc1nc2c(s1)CCCC2C(=O)NCC1CCN(Cc2cc3ccccc3o2)C1` (stereo not shown) [Example 48, 2-(3-Phenylpropionylamino)-4,5,6,7-tetrahydrobenzthiazol-4-carboxylic acid (1-benzofuran-2-ylmethylpyrrolidin-3-yl)methylamide], the results for the inhibition at 10 µM against 5-HT uptake (setting [1]) and at NA transporter were 51% and 67%, respectively.

With `CC=CC=CC(=O)Nc1nc2c(s1)CCCC2C(=O)NCC1CCN(Cc2c(Cl)cccc2Cl)C1` (stereo not shown) [Example 49, 2-Hexa-2,4-dienoylamino-4,5,6,7-tetrahydrobenzthiazol-4-carboxylic acid[1-(2,6-dichlorobenzyl)pyrrolidin-3-yl]methylamide], the “% Inhibition of 5-HT uptake [10 μM]” value at 5-HT uptake (setting [1]) was found to be 51%. In addition, the “% Inhibition of NA uptake [10 μM]” value on NA transporter is 44%.

As for `CCOc1ccc(Br)cc1CN1CCC(NC(=O)C2CCCc3sc(NC(=O)c4ccco4)nc32)C1` (stereo not shown) [Example 50, 2-[(Furan-2-carbonyl)amino]-4,5,6,7-tetrahydrobenzthiazol-4-carboxylic acid [1-(5-bromo-2-ethoxybenzyl)pyrrolidin-3-yl]amide], the values for the inhibition at 10 µM against 5-HT uptake (setting [1]) and on NA transporter were 72% and 93%, respectively.

Take `O=C(CCc1ccccc1)Nc1nc2c(s1)CCCC2C(=O)NCC1CCN(Cc2ccc(-c3ccccc3)cc2)C1` (stereo not shown) [Example 55, 2-(3-Phenylpropionylamino)-4,5,6,7-tetrahydrobenzthiazol-4-carboxylic acid (1-biphenyl-4-ylmethylpyrrolidin-3-yl)methylamide]: the inhibition at 10 µM turned out to be 54% at 5-HT uptake (setting [1]) and 44% at NA transporter.

Regarding `CC=CC=CC(=O)Nc1nc2c(s1)CCCC2C(=O)NCC1CCN(Cc2c(F)cccc2Cl)C1` (stereo not shown) [Example 61, 2-Hexa-2,4-dienoylamino-4,5,6,7-tetrahydrobenzthiazol-4-carboxylic acid[1-(2-chloro-6-fluorobenzyl)pyrrolidin-3-yl]methylamide], the “% Inhibition of 5-HT uptake [10 μM]” value on 5-HT uptake (setting [1]) stood at 46%. For the same compound, the “% Inhibition of NA uptake [10 μM]” value on NA transporter worked out at 45%.

For `O=C(Nc1nc2c(s1)CCCC2C(=O)N1CCN(c2ccccn2)CC1)c1ccoc1` (stereo not shown) [Example 64, Furan-3-carboxylic acid[4-(4-pyridin-2-ylpiperazin-1-carbonyl)-4,5,6,7-tetrahydrobenzthiazol-2-yl]amide], on 5-HT uptake (setting [1]), the “% Inhibition of 5-HT uptake [10 μM]” value was determined as 48%. Further, the “% Inhibition of NA uptake [10 μM]” value on NA transporter amounted to 53%.
